≈ marks a conversion by molar mass, not a printed value.
Legend:
[1] = molecular target: T1, glucocerebrosidase (Gcase) (Homo sapiens, UniProt P04062); assay: Glucocerebrosidase (Gcase) activation assay, 4-methylumbelliferyl-beta-D-glucopyranoside substrate, fluorescence; format: biochemical; details: 0.25 h, 10 nM GCase, 100 nM saposin C; for activation at 0.1 µM: pH 4.7, test compound at 0.1 μM, read-out: Percent Gcase Activation 0.1 μM Test Compound; for activation at 1 µM: pH 4.7, test compound at 1.0 μM, read-out: Percent Gcase Activation 1 μM Test Compound
T1 sequence (P04062 40-536): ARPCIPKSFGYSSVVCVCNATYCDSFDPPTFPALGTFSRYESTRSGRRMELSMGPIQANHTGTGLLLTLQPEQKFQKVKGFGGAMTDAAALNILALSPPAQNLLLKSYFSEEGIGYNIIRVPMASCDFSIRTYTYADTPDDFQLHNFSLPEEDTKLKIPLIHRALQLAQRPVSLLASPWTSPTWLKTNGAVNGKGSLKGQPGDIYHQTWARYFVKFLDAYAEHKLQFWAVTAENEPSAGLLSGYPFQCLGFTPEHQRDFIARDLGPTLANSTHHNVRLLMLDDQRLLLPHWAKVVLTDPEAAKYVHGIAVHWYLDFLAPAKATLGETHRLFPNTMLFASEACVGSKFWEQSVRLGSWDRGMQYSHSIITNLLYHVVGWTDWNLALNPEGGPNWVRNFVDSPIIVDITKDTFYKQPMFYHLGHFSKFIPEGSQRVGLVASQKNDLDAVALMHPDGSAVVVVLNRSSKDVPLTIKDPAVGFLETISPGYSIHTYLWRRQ
Protocol: The ability of exemplary compounds to activate glucocerebrosidase (Gcase) was measured.
A 484 μL aliquot of a 1.0 mg/mL solution of phosphatidylserine (PS) (Sigma P7769) in chloroform was evaporated under a stream of nitrogen for 1 hour. The lipid film was dissolved over 4 minutes of vigorous vortexing in 40 mL of 176 mM K2HPO4/50 mM citric acid (pH 4.7) containing 7.5 μL of triton X-100, resulting in a mixed micellar preparation with a composition of 0.32 mM triton and 0.37 mol % PS. 4-Methylumbelliferyl-beta-D-glucopyranoside (ACROS-337025000) was dissolved in the micellar solution to a final concentration of 2 mM for use as the reaction substrate.
Test compounds were diluted to the desired concentrations with dimethylsulfoxide (DMSO) from 10 mM stocks, and 0.41 μL of the DMSO compound mixture was added to 100 μL of micellar solution containing 10 nM GCase and 100 nM saposin C (Enzo ALX-201-262-C050). Pre-incubation was allowed to occur for 30 minutes at room temperature, after which the reaction was initiated by combining 25 μL of substrate solution with 25 μL of compound/GCase/saposin mixture. The reaction proceeded for 15 minutes at room temperature and was stopped by adding 150 μL of 1M glycine, pH 12.5. The endpoint of the reaction was monitored by measuring fluorescence intensity (excitation: 365 nm; emission: 440 nm) on a SpectraMax i3 instrument (Molecular Devices). Test compounds were screened at 1.0 and 0.1 μM final concentration, and subsequent 8-point dose response curves were obtained using 3-fold dilutions from a maximum final concentration of 5 μM.
For experiments in which the test compound was used at a concentration of 1.0 μM, the symbol “+” indicates less than 30% Gcase activation; the symbol “++” indicates Gcase activation in the range of 30% up to 60%; and the symbol “+++” indicates Gcase activation greater than 60%. For experiments in which the test compound was used at a concentration of 0.1 μM, the symbol “*” indicates less than 10% Gcase activation; the symbol “**” indicates Gcase activation in the range of 10% up to 20%; and the symbol “***” indicates greater than 20% Gcase activation.

[2] = Compound solubility in water; format: physicochemical

| Structure (SMILES) | activation at 0.1 µM [1] | activation at 1 µM [1] | solubility [2] |
| --- | --- | --- | --- |
| Cc1cc(C)n2cc(C)c(C(=O)N[C@@H](C)C3CC3)c2n1 [III-27] | 10 to 20% | > 60% | 8.6 µg/mL (≈ 31.7 µM) |
| Cc1cc(-c2cocn2)nc2c(C(=O)N[C@H]3CCCc4ccccc43)ccn12 [III-28] | < 10% | 30 to 60% | 1.4 µg/mL (≈ 3.76 µM) |
| Cc1cc(C)n2ccc(C(=O)NC3(c4ccc(F)cc4)CCOCC3)c2n1 [III-29] | < 10% | 30 to 60% | 2.4 µg/mL (≈ 6.53 µM) |
| Cc1cc(-c2ccc(F)cc2)nc2c(C(=O)N[C@@H](C)C3CC3)ccn12 [III-30] | > 20% | > 60% | 0.1 µg/mL (≈ 0.296 µM) |
| Cc1cc(-c2ccc(F)cc2)n2ccc(C(=O)N[C@@H](C)C3CC3)c2n1 [III-31] | < 10% | 30 to 60% | 0.7 µg/mL (≈ 2.07 µM) |
| Cc1ccnc2c(C(=O)NC3(c4ccccc4OC4CC4)CC3)ccn12 [III-34] | < 10% | 30 to 60% | 6.3 µg/mL (≈ 18.1 µM) |
| Cc1cc(N2CCOCC2)nc2c(C(=O)NC(C)(C)C3CC3)ccn12 [III-35] | 10 to 20% | > 60% | 14 µg/mL (≈ 40.9 µM) |
| Cc1cc(C2CCOCC2)nc2c(C(=O)NC(C)(C)C3CC3)ccn12 [III-36] | < 10% | 30 to 60% | 21.3 µg/mL (≈ 62.4 µM) |
| Cc1cc(NC2CCOCC2)nc2c(C(=O)NC(C)(C)C3CC3)ccn12 [III-38] | 10 to 20% | > 60% | 10.1 µg/mL (≈ 28.3 µM) |
| Cc1cc(-c2ccccn2)nc2c(C(=O)NC(C)(C)C3CC3)ccn12 [III-39] | > 20% | > 60% | 0.7 µg/mL (≈ 2.09 µM) |
| Cc1cc(-c2ccncc2)nc2c(C(=O)NC(C)(C)C3CC3)ccn12 [III-40] | 10 to 20% | > 60% | 3.5 µg/mL (≈ 10.5 µM) |
| Cc1cc(-c2cccnc2)nc2c(C(=O)NC(C)(C)C3CC3)ccn12 [III-41] | > 20% | > 60% | 2.5 µg/mL (≈ 7.48 µM) |
| Cc1cc(-c2cncnc2)nc2c(C(=O)NC(C)(C)C3CC3)ccn12 [III-42] | 10 to 20% | > 60% | 3.4 µg/mL (≈ 10.1 µM) |
| Cc1cc(N2CCC(F)(F)CC2)nc2c(C(=O)NC(C)(C)C3CC3)ccn12 [III-44] | 10 to 20% | > 60% | 1.4 µg/mL (≈ 3.72 µM) |
| Cc1cc(NC2CC3CCC(C2)O3)nc2c(C(=O)NC(C)(C)C3CC3)ccn12 (stereo not drawn) [III-45] | < 10% | 30 to 60% | 12.3 µg/mL (≈ 32.2 µM) |
| CC(C)(NC(=O)c1ccn2ccc(-c3ccc(F)cc3)nc12)C1CC1 [III-46] | < 10% | 30 to 60% | 0.3 µg/mL (≈ 0.889 µM) |
| C[C@H](NC(=O)c1ccn2ccc(-c3ccc(F)cc3)nc12)C1CC1 [III-47] | < 10% | 30 to 60% | 0.1 µg/mL (≈ 0.309 µM) |
| CO[C@H]1CC[C@H](NC(=O)c2ccn3c(C)cc(-c4ccc(F)cc4)nc23)CC1 [III-48] | 10 to 20% | > 60% | 0.9 µg/mL (≈ 2.36 µM) |
| C[C@H](NC(=O)c1ccn2cc(-c3ccc(F)cc3)cnc12)C1CC1 [III-49] | < 10% | < 30% | 0.3 µg/mL (≈ 0.928 µM) |
| Cc1c(-c2ccc(F)cc2)cnc2c(C(=O)N[C@@H](C)C3CC3)ccn12 [III-51] | < 10% | < 30% | 0.1 µg/mL (≈ 0.296 µM) |
| Cc1nc2c(C(=O)N[C@@H](C)C3CC3)ccn2c(C)c1-c1ccc(F)cc1 [III-52] | < 10% | < 30% | 1.7 µg/mL (≈ 4.84 µM) |
| Cc1cc(-c2cccnc2)nc2c(C(=O)NC(C3CC3)C(F)(F)F)ccn12 (stereo not drawn) [III-55] | > 20% | > 60% | 2.9 µg/mL (≈ 7.75 µM) |
| Cc1cc(C)n2ccc(C(=O)NC(Cc3ccccc3)c3ccccc3)c2n1 (stereo not drawn) [IV-38] |  |  | 0.2 µg/mL (≈ 0.541 µM) |
| Cc1cc(C)n2ccc(C(=O)NC(C)c3ccccc3F)c2n1 (stereo not drawn) [IV-108] | 10 to 20% | > 60% |  |
